The target of one test is EPHA2 (human) (UniProt P29317). Briefly: radiometric filter-binding kinase assay. As to conditions: compound 1.0 µM.
HIPK3 (human), sequence (Q9H422 whole entry, looked up): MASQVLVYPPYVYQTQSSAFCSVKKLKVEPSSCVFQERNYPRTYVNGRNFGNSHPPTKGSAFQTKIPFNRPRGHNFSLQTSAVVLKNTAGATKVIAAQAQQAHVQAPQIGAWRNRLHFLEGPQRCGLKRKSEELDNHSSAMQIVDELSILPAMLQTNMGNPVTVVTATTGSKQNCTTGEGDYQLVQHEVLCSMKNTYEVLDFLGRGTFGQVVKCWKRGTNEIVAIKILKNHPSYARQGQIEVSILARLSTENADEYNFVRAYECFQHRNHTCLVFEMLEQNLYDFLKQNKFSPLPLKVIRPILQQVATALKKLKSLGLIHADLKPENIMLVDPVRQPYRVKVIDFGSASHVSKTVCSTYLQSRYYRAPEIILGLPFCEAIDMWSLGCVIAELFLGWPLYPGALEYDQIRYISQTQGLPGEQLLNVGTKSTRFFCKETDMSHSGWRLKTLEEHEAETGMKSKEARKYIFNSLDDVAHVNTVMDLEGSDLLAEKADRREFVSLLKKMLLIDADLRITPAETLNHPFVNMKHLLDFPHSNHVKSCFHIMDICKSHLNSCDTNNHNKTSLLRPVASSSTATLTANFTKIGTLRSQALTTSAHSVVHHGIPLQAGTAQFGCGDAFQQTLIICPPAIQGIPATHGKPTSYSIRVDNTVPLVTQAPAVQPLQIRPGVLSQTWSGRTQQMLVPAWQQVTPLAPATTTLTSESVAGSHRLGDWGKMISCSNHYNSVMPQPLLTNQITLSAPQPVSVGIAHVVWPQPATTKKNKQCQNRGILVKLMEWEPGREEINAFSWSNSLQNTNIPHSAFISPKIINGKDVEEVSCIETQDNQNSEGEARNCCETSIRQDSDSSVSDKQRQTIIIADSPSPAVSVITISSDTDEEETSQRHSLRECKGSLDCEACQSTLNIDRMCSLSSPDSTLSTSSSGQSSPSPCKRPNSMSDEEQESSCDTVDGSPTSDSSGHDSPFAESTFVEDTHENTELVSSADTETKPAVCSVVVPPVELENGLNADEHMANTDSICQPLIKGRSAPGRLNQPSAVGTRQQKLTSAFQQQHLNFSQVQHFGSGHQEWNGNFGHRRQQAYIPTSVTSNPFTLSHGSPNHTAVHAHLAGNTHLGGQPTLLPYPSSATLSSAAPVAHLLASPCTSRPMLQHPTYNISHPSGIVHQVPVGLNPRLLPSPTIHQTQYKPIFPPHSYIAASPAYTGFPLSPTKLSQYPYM
EPHA2 (human), sequence (P29317 whole entry, looked up): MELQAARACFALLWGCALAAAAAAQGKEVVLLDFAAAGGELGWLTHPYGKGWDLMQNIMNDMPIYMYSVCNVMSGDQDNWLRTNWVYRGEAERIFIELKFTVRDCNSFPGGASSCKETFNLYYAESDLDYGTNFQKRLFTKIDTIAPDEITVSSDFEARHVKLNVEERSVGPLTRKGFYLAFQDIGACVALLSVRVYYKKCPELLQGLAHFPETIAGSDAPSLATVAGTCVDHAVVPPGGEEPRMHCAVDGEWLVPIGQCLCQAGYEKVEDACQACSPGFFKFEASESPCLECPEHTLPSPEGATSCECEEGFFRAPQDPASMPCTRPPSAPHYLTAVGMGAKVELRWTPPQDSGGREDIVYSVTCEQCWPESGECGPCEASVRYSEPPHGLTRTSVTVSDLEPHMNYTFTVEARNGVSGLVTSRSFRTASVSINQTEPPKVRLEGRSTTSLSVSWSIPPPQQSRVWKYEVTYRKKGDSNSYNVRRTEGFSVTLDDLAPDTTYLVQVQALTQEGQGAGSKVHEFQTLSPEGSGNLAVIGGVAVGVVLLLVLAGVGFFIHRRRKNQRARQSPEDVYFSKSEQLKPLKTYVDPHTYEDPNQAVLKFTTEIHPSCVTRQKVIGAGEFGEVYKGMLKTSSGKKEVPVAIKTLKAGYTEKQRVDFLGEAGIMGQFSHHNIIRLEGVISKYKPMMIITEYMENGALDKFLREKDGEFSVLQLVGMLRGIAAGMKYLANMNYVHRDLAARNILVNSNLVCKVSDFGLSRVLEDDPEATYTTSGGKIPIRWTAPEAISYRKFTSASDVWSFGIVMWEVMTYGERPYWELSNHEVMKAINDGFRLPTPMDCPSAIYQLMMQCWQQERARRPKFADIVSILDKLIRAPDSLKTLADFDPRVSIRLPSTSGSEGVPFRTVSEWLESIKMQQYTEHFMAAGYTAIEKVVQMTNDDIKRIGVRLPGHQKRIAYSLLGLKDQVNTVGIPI
MAPK12 (human), sequence (P53778 whole entry, looked up): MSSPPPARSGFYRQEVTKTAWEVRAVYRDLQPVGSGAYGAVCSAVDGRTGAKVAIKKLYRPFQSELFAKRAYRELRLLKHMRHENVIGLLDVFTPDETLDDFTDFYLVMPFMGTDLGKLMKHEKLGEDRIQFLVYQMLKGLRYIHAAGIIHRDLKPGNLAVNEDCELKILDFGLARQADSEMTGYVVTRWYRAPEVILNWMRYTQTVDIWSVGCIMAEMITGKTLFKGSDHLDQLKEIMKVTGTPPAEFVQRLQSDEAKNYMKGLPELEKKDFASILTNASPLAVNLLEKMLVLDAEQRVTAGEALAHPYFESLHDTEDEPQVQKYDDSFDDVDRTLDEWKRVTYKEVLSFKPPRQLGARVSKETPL
For the compound `C[C@H]1CCCC(=O)CCC/C=C/c2cc(O)cc(O)c2C(=O)O1`, the residual activity (in general, the signal under treatment as a percentage of the control signal) turned out to be 69%.

For `O=C1Nc2nc(-c3c(O)cccc3OCC3CC3)cc(C3CCCNC3)c2CO1` (stereo not given), the residual activity came out at 96%.

The test is the same for the next values; noted with them: compound 10.0 µM.
With `C[C@H]1CCCC(=O)CCC/C=C/c2cc(O)cc(O)c2C(=O)O1`, the residual activity is 26%.

For the compound `O=C1Nc2nc(-c3c(O)cccc3OCC3CC3)cc(C3CCCNC3)c2CO1` (stereo not given), the residual activity was 84%.

For the next test, the target named is PIM1 (human) (UniProt P11309). Briefly: radiometric filter-binding kinase assay. As to conditions: compound 0.1 µM.
PIM1 (human), sequence (P11309 whole entry, looked up): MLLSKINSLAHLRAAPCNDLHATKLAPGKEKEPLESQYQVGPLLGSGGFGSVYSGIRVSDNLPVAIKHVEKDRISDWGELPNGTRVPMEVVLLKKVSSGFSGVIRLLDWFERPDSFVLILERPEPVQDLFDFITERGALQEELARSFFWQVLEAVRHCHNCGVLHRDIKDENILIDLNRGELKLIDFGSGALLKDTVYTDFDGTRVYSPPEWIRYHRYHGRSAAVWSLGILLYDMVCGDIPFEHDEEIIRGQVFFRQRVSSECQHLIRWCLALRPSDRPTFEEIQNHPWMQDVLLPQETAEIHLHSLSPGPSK
As for `COc1ccc2c(c1)c1c3c(c4c5ccccc5n(C)c4c1n2CC(O)CN(C)C)C(=O)NC3=O` (stereo not given), the residual activity came to 9%.

Staying with this test, now noted: compound 1.0 µM.
Regarding `C[C@H]1CCCC(=O)CCC/C=C/c2cc(O)cc(O)c2C(=O)O1`, the residual activity turned out to be 51%.

As for `Cc1cccc(Nc2nn(C)c3ncnc(N)c23)c1`, the residual activity was 127%.

For `O=C1Nc2nc(-c3c(O)cccc3OCC3CC3)cc(C3CCCNC3)c2CO1` (stereo not given), the residual activity worked out at 76%.

For `COc1ccc2c(c1)c1c3c(c4c5ccccc5n(C)c4c1n2CC(O)CN(C)C)C(=O)NC3=O` (stereo not given), the residual activity was determined as 1%.

As for `Cn1nc(Nc2ccc(F)cc2)c2c(N)ncnc21`, the residual activity came to 111%.

The same test, now with this note: compound 10.0 µM.
Turning to `C[C@H]1CCCC(=O)CCC/C=C/c2cc(O)cc(O)c2C(=O)O1`, the residual activity was 11%.

For `Cc1cccc(Nc2nn(C)c3ncnc(N)c23)c1`, the residual activity stood at 115%.

`O=C1Nc2nc(-c3c(O)cccc3OCC3CC3)cc(C3CCCNC3)c2CO1` (stereo not given): the residual activity is 15%.

In the case of `COc1ccc2c(c1)c1c3c(c4c5ccccc5n(C)c4c1n2CC(O)CN(C)C)C(=O)NC3=O` (stereo not given), the residual activity was found to be 2%.

`Cn1nc(Nc2ccc(F)cc2)c2c(N)ncnc21`: the residual activity came to 115%.

A further test concerns the target MAPK12 (human) (UniProt P53778). In words: radiometric filter-binding kinase assay. As to conditions: compound 0.1 µM.
On to `COc1ccc2c(c1)c1c3c(c4c5ccccc5n(C)c4c1n2CC(O)CN(C)C)C(=O)NC3=O` (stereo not given), for which the residual activity stood at 99%.

The same test, now with this note: compound 1.0 µM.
With `C[C@H]1CCCC(=O)CCC/C=C/c2cc(O)cc(O)c2C(=O)O1`, the residual activity was found to be 97%.

With `Cc1cccc(Nc2nn(C)c3ncnc(N)c23)c1`, the residual activity came out at 120%.

Take `O=C1Nc2nc(-c3c(O)cccc3OCC3CC3)cc(C3CCCNC3)c2CO1` (stereo not given): the residual activity turned out to be 85%.

Regarding `COc1ccc2c(c1)c1c3c(c4c5ccccc5n(C)c4c1n2CC(O)CN(C)C)C(=O)NC3=O` (stereo not given), the residual activity is 90%.

Take `Cn1nc(Nc2ccc(F)cc2)c2c(N)ncnc21`: the residual activity is 113%.

The test is the same for the next values; noted with them: compound 10.0 µM.
For the compound `C[C@H]1CCCC(=O)CCC/C=C/c2cc(O)cc(O)c2C(=O)O1`, the residual activity was determined as 93%.

Take `Cc1cccc(Nc2nn(C)c3ncnc(N)c23)c1`: the residual activity turned out to be 132%.

For the compound `O=C1Nc2nc(-c3c(O)cccc3OCC3CC3)cc(C3CCCNC3)c2CO1` (stereo not given), the residual activity worked out at 66%.

`COc1ccc2c(c1)c1c3c(c4c5ccccc5n(C)c4c1n2CC(O)CN(C)C)C(=O)NC3=O` (stereo not given): the residual activity is 74%.

In the case of `Cn1nc(Nc2ccc(F)cc2)c2c(N)ncnc21`, the residual activity is 112%.

The next test addresses MELK (human) (UniProt Q14680). Briefly: radiometric filter-binding kinase assay. As to conditions: compound 0.1 µM.
For `COc1ccc2c(c1)c1c3c(c4c5ccccc5n(C)c4c1n2CC(O)CN(C)C)C(=O)NC3=O` (stereo not given), the residual activity is 72%.

The test is the same for the next values; noted with them: compound 1.0 µM.
Regarding `C[C@H]1CCCC(=O)CCC/C=C/c2cc(O)cc(O)c2C(=O)O1`, the residual activity came to 97%.

As for `Cc1cccc(Nc2nn(C)c3ncnc(N)c23)c1`, the residual activity turned out to be 108%.

Turning to `COc1ccc2c(c1)c1c3c(c4c5ccccc5n(C)c4c1n2CC(O)CN(C)C)C(=O)NC3=O` (stereo not given), the residual activity was 20%.

With `Cn1nc(Nc2ccc(F)cc2)c2c(N)ncnc21`, the residual activity amounted to 109%.

The test is the same for the next values; noted with them: compound 10.0 µM.
`C[C@H]1CCCC(=O)CCC/C=C/c2cc(O)cc(O)c2C(=O)O1`: the residual activity was found to be 66%.

`Cc1cccc(Nc2nn(C)c3ncnc(N)c23)c1`: the residual activity stood at 118%.

Regarding `O=C1Nc2nc(-c3c(O)cccc3OCC3CC3)cc(C3CCCNC3)c2CO1` (stereo not given), the residual activity came out at 58%.

In the case of `COc1ccc2c(c1)c1c3c(c4c5ccccc5n(C)c4c1n2CC(O)CN(C)C)C(=O)NC3=O` (stereo not given), the residual activity turned out to be 8%.

With `Cn1nc(Nc2ccc(F)cc2)c2c(N)ncnc21`, the residual activity came out at 91%.

In a further test the target is MAPKAPK2 (human) (UniProt P49137). Briefly: radiometric filter-binding kinase assay. As to conditions: compound 0.1 µM.
MAPKAPK2 (human), sequence (P49137 whole entry, looked up): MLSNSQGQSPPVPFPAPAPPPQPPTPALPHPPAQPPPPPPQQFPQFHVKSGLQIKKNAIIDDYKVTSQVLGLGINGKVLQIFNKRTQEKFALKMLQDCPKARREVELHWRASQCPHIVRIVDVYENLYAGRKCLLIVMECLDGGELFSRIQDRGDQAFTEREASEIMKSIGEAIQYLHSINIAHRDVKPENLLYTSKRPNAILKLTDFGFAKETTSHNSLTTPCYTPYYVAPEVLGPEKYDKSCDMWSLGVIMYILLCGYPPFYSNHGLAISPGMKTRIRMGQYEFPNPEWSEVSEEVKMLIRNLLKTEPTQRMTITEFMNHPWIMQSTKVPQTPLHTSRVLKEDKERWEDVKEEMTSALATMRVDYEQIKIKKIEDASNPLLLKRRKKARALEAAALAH
`COc1ccc2c(c1)c1c3c(c4c5ccccc5n(C)c4c1n2CC(O)CN(C)C)C(=O)NC3=O` (stereo not given): the residual activity turned out to be 107%.

Still in this test, the particulars now being: compound 1.0 µM.
Consider `C[C@H]1CCCC(=O)CCC/C=C/c2cc(O)cc(O)c2C(=O)O1`, for which the residual activity turned out to be 101%.

As to `Cc1cccc(Nc2nn(C)c3ncnc(N)c23)c1`, the residual activity is 101%.

As to `COc1ccc2c(c1)c1c3c(c4c5ccccc5n(C)c4c1n2CC(O)CN(C)C)C(=O)NC3=O` (stereo not given), the residual activity was 93%.

On to `Cn1nc(Nc2ccc(F)cc2)c2c(N)ncnc21`, for which the residual activity was determined as 97%.

The test is the same for the next values; noted with them: compound 10.0 µM.
With `C[C@H]1CCCC(=O)CCC/C=C/c2cc(O)cc(O)c2C(=O)O1`, the residual activity was 92%.

For `Cc1cccc(Nc2nn(C)c3ncnc(N)c23)c1`, the residual activity stood at 104%.

Take `COc1ccc2c(c1)c1c3c(c4c5ccccc5n(C)c4c1n2CC(O)CN(C)C)C(=O)NC3=O` (stereo not given): the residual activity was found to be 62%.

For `Cn1nc(Nc2ccc(F)cc2)c2c(N)ncnc21`, the residual activity was determined as 95%.

A further test addresses HIPK3 (human) (UniProt Q9H422). In words: radiometric filter-binding kinase assay. As to conditions: compound 0.1 µM.
Take `COc1ccc2c(c1)c1c3c(c4c5ccccc5n(C)c4c1n2CC(O)CN(C)C)C(=O)NC3=O` (stereo not given): the residual activity was 108%.

The same test, now with this note: compound 1.0 µM.
Turning to `Cc1cccc(Nc2nn(C)c3ncnc(N)c23)c1`, the residual activity was 136%.

As to `COc1ccc2c(c1)c1c3c(c4c5ccccc5n(C)c4c1n2CC(O)CN(C)C)C(=O)NC3=O` (stereo not given), the residual activity was determined as 106%.

As for `Cn1nc(Nc2ccc(F)cc2)c2c(N)ncnc21`, the residual activity turned out to be 143%.

Staying with this test, now noted: compound 10.0 µM.
Consider `Cc1cccc(Nc2nn(C)c3ncnc(N)c23)c1`, for which the residual activity is 138%.

In the case of `COc1ccc2c(c1)c1c3c(c4c5ccccc5n(C)c4c1n2CC(O)CN(C)C)C(=O)NC3=O` (stereo not given), the residual activity is 59%.

Take `Cn1nc(Nc2ccc(F)cc2)c2c(N)ncnc21`: the residual activity stood at 136%.

In another test the target is EEF2K (human) (UniProt O00418). In words: radiometric filter-binding kinase assay. As to conditions: compound 0.1 µM.
EEF2K (human), sequence (O00418 whole entry, looked up): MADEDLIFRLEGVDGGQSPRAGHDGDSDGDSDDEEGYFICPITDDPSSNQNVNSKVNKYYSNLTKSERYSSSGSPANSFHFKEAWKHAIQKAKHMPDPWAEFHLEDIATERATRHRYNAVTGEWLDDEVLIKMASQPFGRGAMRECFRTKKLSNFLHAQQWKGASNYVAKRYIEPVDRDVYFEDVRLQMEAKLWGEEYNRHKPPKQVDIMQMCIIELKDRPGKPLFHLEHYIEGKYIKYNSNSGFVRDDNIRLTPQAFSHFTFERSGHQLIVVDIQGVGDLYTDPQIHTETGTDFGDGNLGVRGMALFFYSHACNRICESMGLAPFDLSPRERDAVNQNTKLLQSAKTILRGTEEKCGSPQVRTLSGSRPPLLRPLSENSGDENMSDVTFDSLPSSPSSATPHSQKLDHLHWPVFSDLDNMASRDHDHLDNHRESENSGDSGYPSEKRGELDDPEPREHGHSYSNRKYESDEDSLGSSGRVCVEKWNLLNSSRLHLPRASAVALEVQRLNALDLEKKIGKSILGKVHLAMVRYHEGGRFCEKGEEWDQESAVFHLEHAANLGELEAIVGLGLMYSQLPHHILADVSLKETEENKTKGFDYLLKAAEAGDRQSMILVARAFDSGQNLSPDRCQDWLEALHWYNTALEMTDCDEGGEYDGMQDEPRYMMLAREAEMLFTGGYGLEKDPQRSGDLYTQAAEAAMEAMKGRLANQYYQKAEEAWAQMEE
Consider `COc1ccc2c(c1)c1c3c(c4c5ccccc5n(C)c4c1n2CC(O)CN(C)C)C(=O)NC3=O` (stereo not given), for which the residual activity amounted to 106%.

Still in this test, the particulars now being: compound 1.0 µM.
As to `C[C@H]1CCCC(=O)CCC/C=C/c2cc(O)cc(O)c2C(=O)O1`, the residual activity turned out to be 101%.

In the case of `Cc1cccc(Nc2nn(C)c3ncnc(N)c23)c1`, the residual activity came to 97%.

For the compound `O=C1Nc2nc(-c3c(O)cccc3OCC3CC3)cc(C3CCCNC3)c2CO1` (stereo not given), the residual activity was determined as 88%.

For `COc1ccc2c(c1)c1c3c(c4c5ccccc5n(C)c4c1n2CC(O)CN(C)C)C(=O)NC3=O` (stereo not given), the residual activity was found to be 106%.

With `Cn1nc(Nc2ccc(F)cc2)c2c(N)ncnc21`, the residual activity stood at 102%.

The same test, now with this note: compound 10.0 µM.
Regarding `C[C@H]1CCCC(=O)CCC/C=C/c2cc(O)cc(O)c2C(=O)O1`, the residual activity was determined as 85%.

As for `Cc1cccc(Nc2nn(C)c3ncnc(N)c23)c1`, the residual activity was 96%.

As for `O=C1Nc2nc(-c3c(O)cccc3OCC3CC3)cc(C3CCCNC3)c2CO1` (stereo not given), the residual activity was found to be 67%.

As to `COc1ccc2c(c1)c1c3c(c4c5ccccc5n(C)c4c1n2CC(O)CN(C)C)C(=O)NC3=O` (stereo not given), the residual activity is 108%.

With `Cn1nc(Nc2ccc(F)cc2)c2c(N)ncnc21`, the residual activity came out at 103%.

The target of another test is GSK3B (human) (UniProt P49841). Briefly: radiometric filter-binding kinase assay. As to conditions: compound 0.1 µM.
As for `COc1ccc2c(c1)c1c3c(c4c5ccccc5n(C)c4c1n2CC(O)CN(C)C)C(=O)NC3=O` (stereo not given), the residual activity was found to be 67%.

The same test, now with this note: compound 1.0 µM.
As to `C[C@H]1CCCC(=O)CCC/C=C/c2cc(O)cc(O)c2C(=O)O1`, the residual activity was found to be 47%.

`Cc1cccc(Nc2nn(C)c3ncnc(N)c23)c1`: the residual activity worked out at 114%.

For the compound `O=C1Nc2nc(-c3c(O)cccc3OCC3CC3)cc(C3CCCNC3)c2CO1` (stereo not given), the residual activity came out at 126%.

For `COc1ccc2c(c1)c1c3c(c4c5ccccc5n(C)c4c1n2CC(O)CN(C)C)C(=O)NC3=O` (stereo not given), the residual activity came to 20%.

For `Cn1nc(Nc2ccc(F)cc2)c2c(N)ncnc21`, the residual activity was found to be 119%.

The same test, now with this note: compound 10.0 µM.
As for `C[C@H]1CCCC(=O)CCC/C=C/c2cc(O)cc(O)c2C(=O)O1`, the residual activity worked out at 11%.

Take `Cc1cccc(Nc2nn(C)c3ncnc(N)c23)c1`: the residual activity came to 133%.

Consider `O=C1Nc2nc(-c3c(O)cccc3OCC3CC3)cc(C3CCCNC3)c2CO1` (stereo not given), for which the residual activity is 99%.

Turning to `COc1ccc2c(c1)c1c3c(c4c5ccccc5n(C)c4c1n2CC(O)CN(C)C)C(=O)NC3=O` (stereo not given), the residual activity came out at 5%.

For `Cn1nc(Nc2ccc(F)cc2)c2c(N)ncnc21`, the residual activity is 125%.

A further test deals with PAK6 (human) (UniProt Q9NQU5). In words: radiometric filter-binding kinase assay. As to conditions: compound 0.1 µM.
PAK6 (human), sequence (Q9NQU5 whole entry, looked up): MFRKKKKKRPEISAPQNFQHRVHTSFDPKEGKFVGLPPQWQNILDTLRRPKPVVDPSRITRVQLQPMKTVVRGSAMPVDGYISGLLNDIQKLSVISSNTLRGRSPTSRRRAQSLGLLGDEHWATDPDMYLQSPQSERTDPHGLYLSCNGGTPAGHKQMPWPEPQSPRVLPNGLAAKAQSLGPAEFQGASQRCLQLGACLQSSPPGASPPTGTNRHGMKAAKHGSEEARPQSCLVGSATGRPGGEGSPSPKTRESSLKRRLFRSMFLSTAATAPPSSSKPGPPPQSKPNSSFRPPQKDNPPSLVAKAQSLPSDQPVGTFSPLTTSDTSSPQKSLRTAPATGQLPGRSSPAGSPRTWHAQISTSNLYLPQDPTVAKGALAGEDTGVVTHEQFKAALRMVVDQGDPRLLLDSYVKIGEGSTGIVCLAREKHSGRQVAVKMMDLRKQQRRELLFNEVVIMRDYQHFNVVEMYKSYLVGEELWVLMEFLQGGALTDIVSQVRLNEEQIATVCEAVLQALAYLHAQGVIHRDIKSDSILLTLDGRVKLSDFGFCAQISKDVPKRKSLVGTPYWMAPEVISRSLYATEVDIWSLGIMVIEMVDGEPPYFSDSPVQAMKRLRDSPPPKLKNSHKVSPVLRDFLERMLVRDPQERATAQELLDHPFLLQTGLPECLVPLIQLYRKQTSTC
Take `COc1ccc2c(c1)c1c3c(c4c5ccccc5n(C)c4c1n2CC(O)CN(C)C)C(=O)NC3=O` (stereo not given): the residual activity was found to be 107%.

The same test, now with this note: compound 1.0 µM.
Consider `C[C@H]1CCCC(=O)CCC/C=C/c2cc(O)cc(O)c2C(=O)O1`, for which the residual activity was found to be 99%.

Turning to `Cc1cccc(Nc2nn(C)c3ncnc(N)c23)c1`, the residual activity amounted to 103%.

Turning to `O=C1Nc2nc(-c3c(O)cccc3OCC3CC3)cc(C3CCCNC3)c2CO1` (stereo not given), the residual activity was 72%.

On to `COc1ccc2c(c1)c1c3c(c4c5ccccc5n(C)c4c1n2CC(O)CN(C)C)C(=O)NC3=O` (stereo not given), for which the residual activity worked out at 82%.

Take `Cn1nc(Nc2ccc(F)cc2)c2c(N)ncnc21`: the residual activity was 113%.

Staying with this test, now noted: compound 10.0 µM.
Consider `C[C@H]1CCCC(=O)CCC/C=C/c2cc(O)cc(O)c2C(=O)O1`, for which the residual activity is 94%.

As for `Cc1cccc(Nc2nn(C)c3ncnc(N)c23)c1`, the residual activity amounted to 102%.

With `O=C1Nc2nc(-c3c(O)cccc3OCC3CC3)cc(C3CCCNC3)c2CO1` (stereo not given), the residual activity was 78%.

With `COc1ccc2c(c1)c1c3c(c4c5ccccc5n(C)c4c1n2CC(O)CN(C)C)C(=O)NC3=O` (stereo not given), the residual activity was 71%.

`Cn1nc(Nc2ccc(F)cc2)c2c(N)ncnc21`: the residual activity stood at 101%.

These data come from the kinase profiling compilation of Christmann-Franck et al. (2016).
